Data taken from the supplement of paper PMC4862054.

Legend:
Details in all cases: 72 h
BT-474 [1] = test system: BT-474
Procedure, shortened: (§1)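 Two sequential readouts followed a 72 h incubation of breast cancer cell lines with compound at 5 concentrations in 10-fold steps over a compound-specific 10,000-fold range: CellTox Green fluorescence (485/520 nm) for cell death, then CellTiter-Glo luminescence, after 10 min at room temperature, for viability. Each plate was normalised to 0.1 % DMSO and a positive kill control. Dose-response curves were fitted for EC50, censored at the top concentration.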

BT-549 = test system: BT-549
Procedure, shortened: as §1

CAL-120 = test system: CAL-120
Procedure, shortened: as §1

CAL-148 [2] = test system: CAL-148
Procedure, shortened: as §1

CAL-51 [3] = test system: CAL-51
Procedure, shortened: as §1

CAL-85-1 [4] = test system: CAL-85-1
Procedure, shortened: as §1

DU-4475 = test system: DU-4475
Procedure, shortened: as §1

HCC1143 = test system: HCC1143
Procedure, shortened: as §1

HCC1599 [5] = test system: HCC1599
Procedure, shortened: as §1

HCC1937 = test system: HCC1937
Procedure, shortened: as §1

HDQ-P1 [6] = test system: HDQ-P1
Procedure, shortened: as §1

Hs578T [7] = test system: Hs578T
Procedure, shortened: as §1

MCF-10A [8] = test system: MCF-10A
Procedure, shortened: as §1

MDA-MB-231 [9] = test system: MDA-MB-231
Procedure, shortened: as §1

MDA-MB-436 = test system: MDA-MB-436
Procedure, shortened: as §1

MDA-MB-453 = test system: MDA-MB-453
Procedure, shortened: as §1

MDA-MB-468 [10] = test system: MDA-MB-468
Procedure, shortened: as §1

MFM-223 [11] = test system: MFM-223
Procedure, shortened: as §1

SK-BR-3 = test system: SK-BR-3
Procedure, shortened: as §1

BT-474 [12] = test system: BT-474; remark: listed apart in the source
Protocol: (§2)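 Drug sensitivity and resistance testing (DSRT) of breast cancer cell lines in 384-well plates, 5 concentrations in 10-fold dilutions over a compound-specific 10,000-fold range. After 72 h, cytotoxicity was read by CellTox Green fluorescence and viability by CellTiter-Glo luminescence (multiplexed), normalised to DMSO and benzethonium chloride controls. EC50 is the inflection point of the fitted dose-response curve (bottom asymptote free, so it can be relative for partial curves) and is censored at the highest tested concentration. Rows with DSS 0 (no meaningful response) were excluded.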

CAL-148 [13] = test system: CAL-148; remark: listed apart in the source
Protocol: as §2

CAL-51 [14] = test system: CAL-51; remark: listed apart in the source
Protocol: as §2

CAL-85-1 [15] = test system: CAL-85-1; remark: listed apart in the source
Protocol: as §2

HCC1599 [16] = test system: HCC1599; remark: listed apart in the source
Protocol: as §2

HDQ-P1 [17] = test system: HDQ-P1; remark: listed apart in the source
Protocol: as §2

Hs578T [18] = test system: Hs578T; remark: listed apart in the source
Protocol: as §2

MCF-10A [19] = test system: MCF-10A; remark: listed apart in the source
Protocol: as §2

MDA-MB-231 [20] = test system: MDA-MB-231; remark: listed apart in the source
Protocol: as §2

MDA-MB-468 [21] = test system: MDA-MB-468; remark: listed apart in the source
Protocol: as §2

MFM-223 [22] = test system: MFM-223; remark: listed apart in the source
Protocol: as §2

CCc1cnn2c(NCc3ccc[n+]([O-])c3)cc(N3CCCC[C@H]3CCO)nc12 [Dinaciclib]
EC50, CellTiter-Glo (BT-474 [1]): 12.9 nM
EC50, CellTiter-Glo (BT-549): 13.9 nM
EC50, CellTiter-Glo (CAL-120): 17.9 nM
EC50, CellTiter-Glo (CAL-148 [2]): 26.9 nM
EC50, CellTiter-Glo (CAL-51 [3]): 12.8 nM
EC50, CellTiter-Glo (CAL-85-1 [4]): 5.42 nM
EC50, CellTiter-Glo (DU-4475): 20.6 nM
EC50, CellTiter-Glo (HCC1143): 12 nM
EC50, CellTiter-Glo (HCC1599 [5]): 14.8 nM
EC50, CellTiter-Glo (HCC1937): 21.9 nM
EC50, CellTiter-Glo (HDQ-P1 [6]): 12.3 nM
EC50, CellTiter-Glo (Hs578T [7]): 16 nM
EC50, CellTiter-Glo (MCF-10A [8]): 45.8 nM
EC50, CellTiter-Glo (MDA-MB-231 [9]): 5.9 nM
EC50, CellTiter-Glo (MDA-MB-436): 9 nM
EC50, CellTiter-Glo (MDA-MB-453): 26.1 nM
EC50, CellTiter-Glo (MDA-MB-468 [10]): 23.7 nM
EC50, CellTiter-Glo (MFM-223 [11]): 21.2 nM
EC50, CellTiter-Glo (SK-BR-3): 6.99 nM
EC50, CellTox Green (BT-474 [12]): 13.2 nM
EC50, CellTox Green (CAL-148 [13]): 28.3 nM
EC50, CellTox Green (CAL-51 [14]): 13 nM
EC50, CellTox Green (CAL-85-1 [15]): 22 nM
EC50, CellTox Green (HCC1599 [16]): 14.1 nM
EC50, CellTox Green (HDQ-P1 [17]): 8.27 nM
EC50, CellTox Green (Hs578T [18]): 26.4 nM
EC50, CellTox Green (MCF-10A [19]): 77.4 nM
EC50, CellTox Green (MDA-MB-231 [20]): 8.07 nM
EC50, CellTox Green (MDA-MB-468 [21]): 17.1 nM
EC50, CellTox Green (MFM-223 [22]): 22 nM
